Measurements: patent publication US6500828B1, “Triazolo-pyridazine derivatives as ligands for gaba receptors” (Merck Sharp & Dohme Ltd., priority 1999, dated 2002)

Compound: CCn1ncnc1COc1nn2c(-c3c(F)cccc3F)nnc2cc1C(C)(C)C [Example 3, 3-(2,6-Difluorophenyl)-7-(1,1-dimethylethyl)-6-(2-ethyl-2H-1,2,4-triazol-3-ylmethoxy)-1,2,4-triazolo[4,3-b]pyridazine]
- melting point: 182 °C
